The source of these data is patent publication US8772540B2, “Thermal responsive molecule” (Kyushu University, National University Corporation, priority 2009, dated 2014).

The nature of data set [1]: Fluorescent spectrum: incorporation of hydrophobic environmental probe ANS-Na into hydrogel. In kind it is physicochemical. The conditions noted are these: 10 μM ANS-Na, 1 mM Eg3C8U aqueous solution. How it is done: Using ANS-Na (8-anilino-1-naphthalene sulfonic acid sodium salt) known as a hydrophobic environmental probe, the hydrogel was tested for incorporation of a fluorescent substance thereinto.

Data set [2] is described as follows: Confirmation of formation of hydrogel (gelling when heated in water). The format is physicochemical. How it is done:
Two ml of deionized water was added to 1 mg of the compound (8), which was dissolved by ultrasonication with cooling in an ice bath. With gradually heating up to room temperature, this was statically left as such for 30 minutes.

For the compound `COCCOCCOCCOCCCCCCNC(=O)Nc1cc(NC(=O)NCCCCCCOCCOCCOCCOC)cc(NC(=O)NCCCCCCOCCOCCOCCOC)c1` [compound (8), 1,1′,1″-(benzene-1,3,5-triyl)tris{3-(2,5,8,11-tetraoxaheptadecan-17-yl)urea}], the “fluorescence of ANS-Na in hydrogel versus aqueous solution” value in data set [1] was “fluorescent intensity increased in the hydrogel and was shifted to the short wavelength side”. Also, in data set [2] (1 mg in 2 ml deionized water, transparent solution at 0° C., heated up to room temperature, left 30 minutes), the hydrogel formation entry was “formed a hydrogel”. Besides, the lowermost gelling concentration in data set [2] (in water, gels when heated) amounted to 0.05 wt. %.
